Test results reported in patent publication US20230310409A1, “TREATING RHEUMATOID ARTHRITIS” (BRISTOL-MYERS SQUIBB COMPANY, priority 2020, published 2023).

Key:
Format in all cases: in vivo, mice (male DBA/1)
[1] = test system: collagen-induced arthritis model; test: Collagen-induced arthritis in mice, clinical score (arthritic index); conditions: for disease score: mouse CIA, Compound (I) 0.25 mg/kg oral once daily from day 21, mEnbrel 10 mg/kg i.p. twice per week from primary immunization, combination 0.25+10 mg/kg
Experimental: Male DBA/1 mice (9-11 weeks of age, Harlan) were primed with bovine type II collagen (Chondrex #20021) in adjuvant (Sigma adjuvant system, Sigma Aldrich #S6322) at the base of tail on day 1 and on day 21. Mice were randomized into 7 groups based on body weight and assigned as either vehicle (10% ethanol; 45% PEG 300; 5% pluronic F-68; 40% 20 mM citrate buffer); Compound (I) at 0.25 and 2.5 mg/kg or mEnbrel (mouse Enbrel) at 10 mg/kg or combination of Compound (I) with mEnbrel at 0.25+10 mg/kg and 2.5+10 mg/kg or mCTLA4 (mouse CTLA4-Ig) (as a reference compound) at 3 mg/kg dose level. Compound (I) was administered from day 21 by oral gavage once daily whereas mEnbrel and mCTLA4 were administered from day of primary immunization, twice per week by intraperitoneal injection. Disease activity was monitored and scored twice per week using standard criteria (0: normal; 1: mild, but definite redness and swelling of the ankle or wrist, or apparent redness and swelling limited to individual digits regardless of number of affected digits; 2: moderate redness and swelling of ankle or wrist; 3: severe redness and swelling of the entire paw including digits; 4: maximally inflamed limb with involvement of multiple joints).
Compound (I) was tested in the semi-therapeutic mode of treatment in mouse collagen-induced arthritis model. Dosing initiated after the antigen boost (from day 21) and continued up to day 45.
Compound (I) was tested in combination with the TNFα blocking agent mEnbrel in the collagen-induced arthritis model where dosing of Compound (I) was initiated after the antigen boost whereas mEnbrel was administered from the day of primary immunization.
Mice were treated with respective treatment. During the entire study course (A) and at the time of termination (B) disease was assessed by measuring the clinical score (arthritic index). Data are from one experiment with 10 mice per group. ***P<0.0001 versus vehicle by one-way ANOVA with a Dunnett test.

IL-6 = test: Plasma IL-6 at termination in collagen-induced arthritis model; conditions: Compound (I) alone, 0.25 and 2.5 mg/kg
Experimental: Male DBA/1 mice (9-11 weeks of age, Harlan) were primed with bovine type II collagen (Chondrex #20021) in adjuvant (Sigma adjuvant system, Sigma Aldrich #S6322) at the base of tail on day 1 and on day 21. Mice were randomized into 7 groups based on body weight and assigned as either vehicle (10% ethanol; 45% PEG 300; 5% pluronic F-68; 40% 20 mM citrate buffer); Compound (I) at 0.25 and 2.5 mg/kg or mEnbrel (mouse Enbrel) at 10 mg/kg or combination of Compound (I) with mEnbrel at 0.25+10 mg/kg and 2.5+10 mg/kg or mCTLA4 (mouse CTLA4-Ig) (as a reference compound) at 3 mg/kg dose level. Compound (I) was administered from day 21 by oral gavage once daily whereas mEnbrel and mCTLA4 were administered from day of primary immunization, twice per week by intraperitoneal injection. Disease activity was monitored and scored twice per week using standard criteria (0: normal; 1: mild, but definite redness and swelling of the ankle or wrist, or apparent redness and swelling limited to individual digits regardless of number of affected digits; 2: moderate redness and swelling of ankle or wrist; 3: severe redness and swelling of the entire paw including digits; 4: maximally inflamed limb with involvement of multiple joints). […] At the time of termination (A) serum anti-collagen antibody titer and (B) plasma IL-6 was assessed. […]

anti-collagen antibodies = test: Serum anti-collagen antibody titer at termination in collagen-induced arthritis model; conditions: Compound (I) alone, 0.25 and 2.5 mg/kg
Experimental: (§1) Male DBA/1 mice (9-11 weeks of age, Harlan) were primed with bovine type II collagen (Chondrex #20021) in adjuvant (Sigma adjuvant system, Sigma Aldrich #S6322) at the base of tail on day 1 and on day 21. Mice were randomized into 7 groups based on body weight and assigned as either vehicle (10% ethanol; 45% PEG 300; 5% pluronic F-68; 40% 20 mM citrate buffer); Compound (I) at 0.25 and 2.5 mg/kg or mEnbrel (mouse Enbrel) at 10 mg/kg or combination of Compound (I) with mEnbrel at 0.25+10 mg/kg and 2.5+10 mg/kg or mCTLA4 (mouse CTLA4-Ig) (as a reference compound) at 3 mg/kg dose level. […] Disease activity was monitored and scored twice per week using standard criteria (0: normal; 1: mild, but definite redness and swelling of the ankle or wrist, or apparent redness and swelling limited to individual digits regardless of number of affected digits; 2: moderate redness and swelling of ankle or wrist; 3: severe redness and swelling of the entire paw including digits; 4: maximally inflamed limb with involvement of multiple joints). […]
FIG. 2: Inhibition of circulating markers by Compound (I) alone and in combination with mEnbrel. […] At the time of termination (A) serum anti-collagen antibody titer and (B) plasma IL-6 was assessed. […]

[2] = Pharmacokinetics of Compound (I) in CIA model, whole blood (DBS) drug concentration by LCMS
Experimental: as §1
FIG. 3: Pharmacokinetic analysis of Compound (I) in CIA model of arthritis. […] Following 19 days of dosing, whole blood was drawn at different time points and DBS drug concentrations were measured by LCMS. […]

Row | Molecule | arthritic score at the termination of the study ([1]; Compound (I) alone, 0.25 and 2.5 mg/kg oral once daily from day 21) | disease score [1] | inhibition of clinical signs of disease, earliest time ([1]; semi-therapeutic mode, dosing from day 21 up to day 45, 0.25 and 2.5 mg/kg oral once daily) [days post dosing] | plasma IL-6 (IL-6) | serum anti-collagen-antibody titer (anti-collagen antibodies) | whole blood drug concentration ([2]; 0.25 and 2.5 mg/kg oral, after 19 days of dosing, 1-24 h post dose) | whole blood concentration of Compound (I) in the presence of mEnbrel ([2]; co-treatment with mEnbrel 10 mg/kg)
1 | Cc1c(-c2[nH]c3ccc(C4CCN(CC(N)=O)CC4)cc3c2C(C)C)cn2ncnc2c1C [Compound (I), 2-(4-(2-(7,8-dimethyl-[1,2,4]triazolo[1,5-a]pyridin-6-yl)-3-isopropyl-1H-indol-5-yl)piperidin-1-yl)acetamide] | Significant dose dependent suppression | 82 % of control | 7 | dose dependent reduction | dose dependent reduction | dose dependent increase | not altered
2 | mEnbrel: fully mouse version of Enbrel: mouse TNFR1B extracellular domain (Val-23 to Gly-258) fused to mouse IgG2A, TNFα blocking agent (protein, listed as Mus musculus, SIGNAL (1)..(17) Osteonectin signal sequence; (18)..(253) Mouse TNFR1B (V23 - G258); (254)..(486) Mouse IgG2a) MRAWIFFLLCLAGRALAVPAQVVLTPYKPEPGYECQISQEYYDRKAQMCCAKCPPGQYVKHFCNKTSDTVCADCEASMYTQVWNQFRTCLSCSSSCTTDQVEIRACTKQQNRVCACEAGRYCALKTHSGSCRQCMRLSKCGPGFGVASSRAPNGNVLCKACAPGTFSDTTSSTDVCRPHRICSILAIPGNASTDAVCAPESPTLSAIPRTLYVSQPEPTRSQPLDQEPGPSQTPSILTSLGSTPIIEQSTKGGEPRGPTIKPCPPCKCPAPNLLGGPSVFIFPPKIKDVLMISLSPIVTCVVVDVSEDDPDVQISWFVNNVEVHTAQTQTHREDYNSTLRVVSALPIQHQDWMSGKEFKCKVNNKDLPAPIERTISKPKGSVRAPQVYVLPPPEEEMTKKQVTLTCMVTDFMPEDIYVEWTNNGKTELNYKNTEPVLDSDGSYFMYSKLRVEKKNWVERNSYSCSVVHEGLHNHHTTKSFSRTPGK | – | 56 % of control | – | – | – | – | –
